Values of other authors in patent US20130292614A1, “F[…] AS […]” (3M INNOVATIVE PROPERTIES COMPANY, priority 2011, published 2013).

Settings: inhalation; 2.5 to 3 hour; cited from earlier work

SMILES: FC(F)(F)C1(F)OC1(F)F (stereo not shown) [C3 perfluorooxirane]
- acute lethal concentration (ALC): 200 ppm
